Data as given in publication PMC3886529, “Structural Features of the Peptide Homologous to 6-25 Fragment of Influenza A PB1 Protein” (International Journal of Peptides, 2013).
Ends that are not written are not given here.

Tests used:
PB1 (6-25) [1] = molecular target: T1, PB1 (6-25) (Influenza A virus, UniProt O89749); type: physicochemical
PB1 (6-25) [2] = molecular target: T1, PB1 (6-25); type: physicochemical; settings: pH 7.4
[3] = type: physicochemical; settings: diluted to 0.2 mM, negative staining (phosphotungstic acid, pH 7.4), 80 kV
PB1 (6-25) [4] = molecular target: T1, PB1 (6-25); type: binding
PB1 (6-25) [5] = molecular target: T1, PB1 (6-25); type: physicochemical; remark: listed apart in the source
PB1 (6-25) [6] = molecular target: T1, PB1 (6-25); test: biochemical; type: binding
[7] = Circular dichroism, secondary structure of PB1 (6-25) in solution; type: physicochemical; settings: CD 194–320 nm, 1 mg/mL solution
Experimental: Circular dichroism (194–320 nm) was measured on PB1 (6-25) 1 mg/mL solution. Spectra were analyzed with CDNN software.

Substance	reversibility of insoluble aggregates (PB1 (6-25) [1])	characteristic linear size of structured aggregates (PB1 (6-25) [2])	formation of structured aggregates, single peptide alone [3]	effect on antiparallel beta-sheets of PB1 (6-25) (PB1 (6-25) [4])	diameter of aggregates (PB1 (6-25) [5])	Kd (PB1 (6-25) [6]) [µM]	alpha-helix content ([7]; CDNN software) [%]	antiparallel beta-sheet content ([7]; CDNN software) [%]	beta-turns content ([7]; CDNN software) [%]	random coil structure content ([7]; CDNN software) [%]	secondary structure in solution ([7]; compared with the molecular dynamics model)
TLLFLKVP-OH [PB1 (6-13), TLLFLKVP]	could not reverse into soluble forms after dilution or heating	about 500 nm	not in the samples containing either one of the peptides	contributed to increase antiparallel beta-sheets	500–1000 nm	200 to 1000					
TLLFLKVPAQNAISTTFPYT [PB1 (6-25), peptide comprised of amino acid residues 6-25 of influenza virus PB1]			not in the samples containing either one of the peptides				8	30	25	37	structure similar to the described model of beta-hairpin
